Results: patent US7074801B1, “Nitrogen-containing condensed cyclic compound having a pyrazolyl group as a substituent group and pharmaceutical composition thereof” (Eisai Co., Ltd., priority 2001, dated 2006)
Structures can show the parent of a compound that is named as a salt.

What follows are compounds tested on STAT6 (assay: Inhibitory test on STAT6 activation: IL-4-induced alkali phosphatase STAT6 reporter in 293 cells stably expressing the STAT6 gene and STAT6 reporter gene). Details: HEK293; Table 1; 1 ng/ml human recombinant IL-4, 16 hours, 293 cells with STAT6 reporter; read-out: Inhibitory activity IC50 (concentration at which the alkali phosphatase activity induced by IL-4 was inhibited by 50%).
Format: cell-based
Procedure: The inhibitory action of the present compound on activation of STAT6 was evaluated according to the following experiments.
1) Construction of a STAT6 Reporter Gene
An oligonucleotide of SEQ ID NO:1 in which three STAT6-binding regions on a human immunoglobulin germline E gene promoter had been linked was mixed with its complementary chain, thermally denatured and annealed, and 5′- and 3′-ends thereof were cleaved with restriction enzymes Kpn I (Code No. 1068A, Takara Shuzo) and Xba I (Code No. 1093A, Takara Shuzo) respectively, and the resulting fragment was cloned into a Kpn I/Xba I site of pUG-BGH-PLAP vector (described in Molecular Pharmacology, 49:860–873, 1996). To induce a basic transcriptional factor, a TK promoter region of herpes virus was cloned into an Xba I/Hind III (Code No. 1060A, Takara Shuzo) site of the pUG-BGH-PLAP vector. To obtain a stably expressing cell strain, a neomycin resistance gene (PGK-neo expression cassette) was integrated with an Sal I (Code No. 1080A, Takara Shuzo) of this vector. Cloning of the TK promoter and PGK-neo expression cassette was carried out according to Molecular Pharmacology, 49:860–873, 1996.
The underlined sites are a Kpn I recognition site and Xba I recognition site respectively. 2) Construction of an STAT6 Expression Vector
An oligonucleotide of SEQ ID NO:2 containing an initiation codon of STAT6 gene and an oligonucleotide of SEQ ID NO:3 containing a stop codon were used, and total RNA was prepared from human peripheral blood cells by using RNeasy Mini kit (Code No. 74104, OIAGEN). Then, cDNA was prepared by reverse transcription reaction using Takara RNA LA PCR kit (Code No. RR012A, Takara Shuzo) and then subjected to PCR reaction with primers of SEQ ID NOS:2 and 3, to amplify the STAT6 gene. • (SEQ ID NO:2) 5′-[…]-3′ The underlined site is an EcoR I recognition site. • (SEQ ID NO:3) 5′-[…]-3′ The underlined site is an Xho I recognition site.
The PCR product was digested with EcoR I (Code No. 1040A, Takara Shuzo) and Xho I (1094A, Takara Shuzo), and the digested fragment was isolated on an agarose gel. The isolated fragment was integrated into a vector fragment obtained by digesting pcDNA3.1 (+) (Code No. U790-20, Invitrogen) vector with EcoRI/Xho I.
3) Introduction of the Gene and Preparation of a Stably Expressing Cell Strain
Human fetal kidney-derived 293 cells (American Type Culture Collection), 3.0×10^5 cells, were spread on a Falcon tissue culture 6-well plate (Code No. 35-3046, Becton Dickinson) and cultured overnight. 1.5 μg of the prepared STAT6 reporter gene, 1.5 μg of the STAT6 gene and 20 μl of lipofectamine (Code No. 18324-012, GIBCO BRL) were mixed in 0.3 ml OPTI-MEM medium (Code No. 31985-070) and left at room temperature for 20 minutes. Thereafter, 1.2 ml OPTI-MEM medium was further added to the cells washed with OPTI-MEM medium not containing fetal bovine serum, and the cells were cultured for 2 hours. 1.5 ml medium containing fetal bovine serum was added thereto, and the cells were cultured for additional 19 hours. The medium was exchanged with a fresh one, and Geneticin (Code No. G-5013, SIGMA) was added at a concentration of 1 mg/ml, and the cells were cultured, and chemical-resistant cells were selected. The resulting chemical-resistant cells were floated in a medium containing 1 mg/ml Geneticin, then spread at a density of 0.5 cell/well on a 96-well microplate (Code No. 35-3072, Becton Dickinson) and cloned to give a clone expressing alkali phosphatase in response to IL-4.
4) Inhibitory Test on STAT6 Activation
The cells stably expressing the STAT6 gene and STAT6 reporter gene and expressing alkali phosphatase in response to IL-4 were spread at a density of 5000 cells/180 μl/well on a 96-well microplate (Code No. 35-3072, Becton Dickinson) and cultured overnight. […]

IC50	Compound
10 to 100 nM	Fc1cc(Cl)ccc1-c1nc(-c2ccc(-c3cnc4ccc(-c5cn[nH]c5)cn34)cc2)no1 [Example 697, 5-(4-Chloro-2-fluorophenyl)-3-{4-[6-(1H-4-pyrazolyl)-imidazo[1,2-a]pyridin-3-yl]-1,2,4-oxadiazole hydrochloride]
< 10 nM	N#CCC[C@H](O)c1nc2ccc(-c3cnc4ccc(-c5c[nH]nc5-c5ccc(F)cc5)cn34)cc2s1 [Example 628, (4S)-4-(6-{6-[3-(4-Fluorophenyl)-1H-4-pyrazolyl]imidazo-[1,2-a]pyridin-3-yl)-1,3-benzothiazol-2-yl)-4-hydroxybutane nitrile dihydrochloride]
< 10 nM	N#Cc1ccc(-c2cnc3ccc(-c4c[nH]nc4-c4ccc(F)cc4)cn23)cc1 [Example 77, 4-{6-[3-(4-Fluorophenyl)-1H-4-pyrazolyl]imidazo[1,2-a]-pyridin-3-yl}benzonitrile dihydrochloride]
< 10 nM	CSc1nnc(-c2cnc3ccc(-c4c[nH]nc4-c4ccc(F)cc4)cn23)o1 [Example 555, 6-[3-(4-Fluorophenyl)-1H-pyrazol-4-yl]-3-(5-methylsulfanyl[1,3,4]oxadiazol-2-yl)imidazo[1,2-a]pyridine]
< 10 nM	c1ccc(-c2cnc3ccc(-c4c[nH]nc4-c4ccc(N5CCOCC5)cc4)cn23)nc1 [Example 539, 6-[3-(4-Morpholine-4-ylphenyl)-1H-pyrazol-4-yl]-3-(pyridin-2-yl)imidazo[1,2-a]pyridine]
< 10 nM	N#Cc1ccc(-c2n[nH]cc2-c2ccc3ncc(-c4ccc(C(N)=O)cc4)n3c2)cc1 [Example 108, 4-{6-[3-(4-Cyanophenyl)-1H-4-pyrazolyl]imidazo[1,2-a]-pyridin-3-yl}benzamide dihydrochloride]
< 10 nM	Fc1ccccc1-c1n[nH]cc1-c1ccc2ncc(-c3noc(C4CC4)n3)n2c1 [Example 583, 3-(5-Cyclopropyl-[1,2,4]oxadiazol-3-yl)-6-[3-(2-fluorophenyl)-1H-4-pyrazolyl]-imidazo[1,2-a]pyridine trihydrochloride]
< 10 nM	O=C(NC1(c2ccc(F)cc2F)CC1)c1ccc(-c2cnc3ccc(-c4cn[nH]c4)cn23)cc1F [Example 661, N1-[1-(2,4-Difluorophenyl)cyclopropyl]-2-fluoro-4-[6-(1H-4-pyrazolyl)imidazo[1,2-a]pyridin-3-yl]benzamide hydrochloride]

Same assay, conditions: HEK293; Table 2; 1 ng/ml human recombinant IL-4, 16 hours, 293 cells with STAT6 reporter; read-out: Inhibitory activity IC50 (concentration at which the alkali phosphatase activity induced by IL-4 was inhibited by 50%)

IC50	Compound
< 10 nM	O=C(Nc1cccc(N2CCN(c3ncnc4ccc(-c5cn[nH]c5)cc34)CC2)c1)C1(c2ccccc2)CC1 [Example 978, 1-Phenylcyclopropanecarboxylic acid (3-{4-[6-(1H-pyrazol-4-yl)quinazolin-4-yl]piperazin-1-yl}phenyl)amide tri-trifluoroacetate]
< 10 nM	c1ccc(N2CCN(c3ncnc4ccc(-c5cn[nH]c5)cc34)CC2)nc1 [Example 936, 6-(1H-Pyrazol-4-yl)-4-(4-pyridin-2-yl-piperazin-1-yl)quinazoline tri-trifluoroacetate]
10 to 100 nM	CS(=O)(=O)c1ccc(C(=O)C2CCN(c3ncnc4ccc(-c5cn[nH]c5)cc34)CC2)s1 [Example 880, (5-Methylsulfonylthiophen-2-yl)-{1-[6-(1H-pyrazol-4-yl)quinazolin-4-yl]piperidin-4-yl}methanone trihydrochloride]
< 10 nM	O=C(NC1=NCCS1)c1ccc(-c2cnc3ccc(-c4cn[nH]c4)cn23)cc1F [Example 712, N1-(4,5-Dihydro-1,3-thiazol-2-yl)-2-fluoro-4-[6-(1H-4-pyrazolyl)imidazo[1,2-a]pyridin-3-yl]benzamide dihydrochloride]
< 10 nM	CCS(=O)(=O)c1ccc(-c2ncnc3ccc(-c4c[nH]nc4-c4ccc(F)cc4)cc23)s1 [Example 896, 4-(5-Ethanesulfonylthiophen-2-yl)-6-[3-(4-fluorophenyl)-1H-pyrazol-4-yl] quinazoline]
< 10 nM	CS(=O)(=O)c1cccc(N2CCN(c3ncnc4ccc(-c5c[nH]nc5-c5ccc6c(c5)OCO6)cc34)CC2)c1 [Example 964, 6-(3-Benzo[1,3]dioxol-5-yl-1H-pyrazol-4-yl)-4-[4-(3-methylsulfonylphenyl)piperazin-1-yl]quinazoline tri-trifluoroacetate]
< 10 nM	Fc1cccc(F)c1-c1n[nH]cc1-c1ccc2ncn(-c3ccc(Cl)cn3)c2c1 [Example 727, 1-(5-Chloropyridin-2-yl)-6-[3-(2,6-difluorophenyl)-1H-4-pyrazolyl]-1H-benzo[d]imidazole trihydrochloride]
< 10 nM	O=S(=O)(c1ccc(-c2ncnc3ccc(-c4c[nH]nc4-c4ccc(F)cc4)cc23)s1)C1CC1 [Example 902, 4-(5-Cyclopropanesulfonylthiophen-2-yl)-6-[3-(4-fluorophenyl)-1H-pyrazol-4-yl] quinazoline]
< 10 nM	CN(C)S(=O)(=O)c1ccc(N2CCN(c3ncnc4ccc(-c5cn[nH]c5)cc34)CC2)cc1 [Example 921, N,N-Dimethyl-4-{4-[6-(1H-pyrazol-4-yl)quinazolin-4-yl]piperazin-1-yl} benzene sulfonamide]
< 10 nM	O=C(Nc1cccc(N2CCN(c3ncnc4ccc(-c5cn[nH]c5)cc34)CC2)c1)C1CC1 [Example 976, Cyclopropanecarboxylic acid (3-{4-[6-(1H-pyrazol-4-yl)quinazolin-4-yl]piperazin-1-yl}phenyl)amide tri-trifluoroacetate]
< 10 nM	CS(=O)(=O)c1ccc(-c2ncnc3ccc(-c4c[nH]nc4-c4ccc(Cl)cc4F)cc23)s1 [Example 894, 6-[3-(4-Chloro-2-fluorophenyl)-1H-pyrazol-4-yl]-4-(5-methylsulfonylthiophen-2-yl) quinazoline]
< 10 nM	Cn1cnc(-c2ncnc3ccc(-c4c[nH]nc4-c4c(F)cccc4F)cc23)c1 [Example 911, 6-[3-(2,6-Difluorophenyl)-1H-pyrazol-4-yl]-4-(1-methyl-1H-imidazol-4-yl) quinazoline]
10 to 100 nM	O=S(=O)(c1ccc(OC2CCN(c3ccnc4ccc(-c5c[nH]nc5C(F)(F)F)cc34)CC2)cc1)C(F)(F)F [Example 1034, 4-[4-(4-Trifluoromethylsulfonylphenoxy)piperidin-1-yl]-6-(3-trifluoromethyl-1H-pyrazol-4-yl)quinoline trihydrochloride]
< 10 nM	Cc1cnn(-c2ncnc3ccc(-c4c[nH]nc4-c4c(F)cccc4F)cc23)c1 [Example 913, 6-[3-(2,6-Difluorophenyl)-1H-pyrazol-4-yl]-4-(4-methylpyrazol-1-yl) quinazoline]
< 10 nM	CS(=O)(=O)c1cnc(-c2ncnc3ccc(-c4c[nH]nc4-c4c(F)cccc4F)cc23)s1 [Example 899, 6-[3-(2,6-Difluorophenyl)-1H-pyrazol-4-yl]-4-(5-methylsulfonylthiazol-2-yl) quinazoline]
10 to 100 nM	Cc1cc(-c2ccnc3ccc(-c4c[nH]nc4C(F)(F)F)cc23)on1 [Example 1070, 4-(3-Methylisoxazol-5-yl)-6-(3-trifluoromethyl-1H-pyrazol-4-yl) quinoline]
< 10 nM	C[C@H](NC(=O)c1ccc(-n2cnc3ccc(-c4cn[nH]c4)cc32)cc1F)C(=O)c1ccc(F)cc1 [Example 729, N1-[(1S)-2-(4-Fluorophenyl-1-methyl-2-oxoethyl)-2-fluoro-4-[6-(1H-4-pyrazolyl)-1H-benzo[d]imidazol-1-yl]benzamide hydrochloride]
